From PMC10114720

What was measured:
[1] = neutral chemical: log K is the mean of log D over all measurements at the three pH values (D shown independent of pH, paired t-test); sd is the table's stddev. PDMS sheets cleaned by Soxhlet with ethyl acetate; batch shaking method with a mixture of all chemicals at several PDMS-mass to water-volume ratios and spiked levels; vials shaken on an orbital shaker at room temperature in the dark, sampled at two equilibration times; PDMS extracts and water quantified by LC-HRMS (Orbitrap); D from the slope of C_PDMS on C_w or their ratio; conditions: PDMS (polydimethylsiloxane silicone sheet); phosphate buffer at three target pH values (the paper's methods)
[2] = PDMS sheets cleaned by Soxhlet with ethyl acetate; batch shaking method with a mixture of all chemicals at several PDMS-mass to water-volume ratios and spiked levels; vials shaken on an orbital shaker at room temperature in the dark, sampled at two equilibration times; PDMS extracts and water quantified by LC-HRMS (Orbitrap); D from the slope of C_PDMS on C_w or their ratio; value is the mean over that pH's experiments (individual experiments in the SI's concentrations table), sd is the table's stdev; conditions: PDMS (polydimethylsiloxane silicone sheet), phosphate buffer at three target pH values (the paper's methods)

Structure (SMILES)	log K PDMS/w (neutral species) [1]	log D PDMS/w (apparent distribution ratio at the stated pH) ([2]; pH 3)	log D PDMS/w (apparent distribution ratio at the stated pH) ([2]; pH 7.4)	log D PDMS/w (apparent distribution ratio at the stated pH) ([2]; pH 11.5)
CNC(=O)/C(=N/OC)c1ccccc1COc1cc(C)ccc1C	2.396 log units; D and K as the pape	2.432 log units; D and K as the pape	2.361 log units; D and K as the pape	2.397 log units; D and K as the pape
CC(C)(C#N)c1cc(Cn2cncn2)cc(C(C)(C)C#N)c1	2.022 log units; D and K as the pape	2.047 log units; D and K as the pape	1.994 log units; D and K as the pape	2.025 log units; D and K as the pape
CCC(C(N)=O)(C(N)=O)c1ccccc1	-0.5565 log units; D and K as the pape	-0.586 log units; D and K as the pape	-0.585 log units; D and K as the pape	-0.5033 log units; D and K as the pape
COCCOCCOCCOCCOC	0.442 log units; D and K as the pape	0.372 log units; D and K as the pape	0.424 log units; D and K as the pape	0.53 log units; D and K as the pape
N#Cc1nn(-c2c(Cl)cc(C(F)(F)F)cc2Cl)c(N)c1S(=O)(=O)C(F)(F)F	2.329 log units; D and K as the pape	2.417 log units; D and K as the pape	2.376 log units; D and K as the pape	2.192 log units; D and K as the pape
NC(=O)Nc1ccc(Cl)c(Cl)c1	0.6359 log units; D and K as the pape	0.5975 log units; D and K as the pape	0.6543 log units; D and K as the pape	0.6515 log units; D and K as the pape
N#Cc1nn(-c2c(Cl)cc(C(F)(F)F)cc2Cl)c(N)c1SC(F)(F)F	2.436 log units; D and K as the pape	2.477 log units; D and K as the pape	2.459 log units; D and K as the pape	2.375 log units; D and K as the pape
[O-][n+]1cccc2ccccc21	1.126 log units; D and K as the pape	1.066 log units; D and K as the pape	1.11 log units; D and K as the pape	1.203 log units; D and K as the pape
CC(C)Nc1nc(N)nc(Cl)n1	0.4139 log units; D and K as the pape	0.418 log units; D and K as the pape	0.4125 log units; D and K as the pape	0.411 log units; D and K as the pape
O=P(c1ccccc1)(c1ccccc1)c1ccccc1	2.562 log units; D and K as the pape	2.588 log units; D and K as the pape	2.511 log units; D and K as the pape	2.589 log units; D and K as the pape
CC(C)(C)Nc1nc(N)nc(Cl)n1	1.296 log units; D and K as the pape	1.314 log units; D and K as the pape	1.264 log units; D and K as the pape	1.309 log units; D and K as the pape
CN(C)c1ccc(C(=O)c2ccc(N(C)C)cc2)cc1	2.057 log units; D and K as the pape	2.372 log units; D and K as the pape	2.263 log units; D and K as the pape	1.409 log units; D and K as the pape
O=S(=O)(c1ccc(Cl)cc1)c1ccc(Cl)cc1	2.563 log units; D and K as the pape	2.579 log units; D and K as the pape	2.592 log units; D and K as the pape	2.517 log units; D and K as the pape
CCNc1nc(N)nc(Cl)n1	0.1961 log units; D and K as the pape	0.21 log units; D and K as the pape	0.2883 log units; D and K as the pape	0.09 log units; D and K as the pape
O=C1CC2(CCCCC2)CN1	1.277 log units; D and K as the pape	1.311 log units; D and K as the pape	1.249 log units; D and K as the pape	1.271 log units; D and K as the pape
Cc1cccc(C)c1N(Cn1cccn1)C(=O)CS(C)=O (stereo not drawn)	0.5949 log units; D and K as the pape	0.5745 log units; D and K as the pape	0.5892 log units; D and K as the pape	0.6192 log units; D and K as the pape
CCCCCCCCn1sccc1=O	2.956 log units; D and K as the pape	3.047 log units; D and K as the pape	2.926 log units; D and K as the pape	2.893 log units; D and K as the pape
CCCCCCCCCCCC(=O)NCC(C)O (stereo not drawn)	3.231 log units; D and K as the pape	3.188 log units; D and K as the pape	3.329 log units; D and K as the pape	3.181 log units; D and K as the pape

Now from value to molecule:

log K PDMS/w (neutral species) [1]	log D PDMS/w (apparent distribution ratio at the stated pH) ([2]; pH 3)	log D PDMS/w (apparent distribution ratio at the stated pH) ([2]; pH 7.4)	log D PDMS/w (apparent distribution ratio at the stated pH) ([2]; pH 11.5)	Structure (SMILES)
3.135 log units; D and K as the pape	3.24 log units; D and K as the pape	3.109 log units; D and K as the pape	3.066 log units; D and K as the pape	O=C(/C=C/C=C/c1ccc2c(c1)OCO2)N1CCCCC1
4.415 log units; D and K as the pape	4.526 log units; D and K as the pape	4.273 log units; D and K as the pape	4.425 log units; D and K as the pape	CC(C)OC(=O)C(C)(C)Oc1ccc(C(=O)c2ccc(Cl)cc2)cc1
1.711 log units; D and K as the pape	1.764 log units; D and K as the pape	1.684 log units; D and K as the pape	1.69 log units; D and K as the pape	CCOC(=O)C(C)(C)Oc1ccc(Cl)cc1
-0.2009 log units; D and K as the pape	-0.2614 log units; D and K as the pape	-0.1813 log units; D and K as the pape	-0.1629 log units; D and K as the pape	Cc1c(C=O)c(=O)n(-c2ccccc2)n1C
-0.02333 log units; D and K as the pape	-0.06167 log units; D and K as the pape	-0.02167 log units; D and K as the pape	0.01333 log units; D and K as the pape	CN(C)S(=O)(=O)c1ccc(N)cc1
2.638 log units; D and K as the pape	2.64 log units; D and K as the pape	2.691 log units; D and K as the pape	2.582 log units; D and K as the pape	CC(C)(C)NC(=O)[C@H]1CC[C@H]2[C@@H]3CC[C@H]4NC(=O)C=C[C@]4(C)[C@H]3CC[C@]12C
1.611 log units; D and K as the pape	1.611 log units; D and K as the pape	1.592 log units; D and K as the pape	1.633 log units; D and K as the pape	CCN(CC)C(=O)c1cccc(C)c1
3.848 log units; D and K as the pape	3.9 log units; D and K as the pape	3.912 log units; D and K as the pape	3.742 log units; D and K as the pape	Cc1ccc(C=C2C(=O)C3(C)CCC2C3(C)C)cc1 (stereo not drawn)
4.227 log units; D and K as the pape	4.266 log units; D and K as the pape	4.252 log units; D and K as the pape	4.168 log units; D and K as the pape	CC(C)c1ccc2sc3ccccc3c(=O)c2c1
